Source: patent publication EP1060162B1, “URETHANES DERIVED FROM AZACYCLOALKANES, THIO AND DITHIO ANALOGUES, PRODUCTION AND USE THEREOF AS 2,3 EPOXYSQUALENE LANESTEROL CYCLASE INHIBITORS” (Boehringer Ingelheim Pharma KG, priority 1997, dated 1999)
Where a name gives a salt, the structure may show the parent alone. Read-outs that look alike come from different tables or passages of the source.

How the values were obtained:
[1] = target: T1, ^14C-Acetat-Einbau in die mit Digitonin fällbaren Steroide (Homo sapiens, UniProt P48449); assay: Inhibition of 14C-acetate incorporation into digitonin-precipitable steroids; format: cell-based; conditions: read-out: Prozentwerte, um die die Verbindungen den ^14C-Acetat-Einbau hemmen
T1 sequence (P48449 2-732): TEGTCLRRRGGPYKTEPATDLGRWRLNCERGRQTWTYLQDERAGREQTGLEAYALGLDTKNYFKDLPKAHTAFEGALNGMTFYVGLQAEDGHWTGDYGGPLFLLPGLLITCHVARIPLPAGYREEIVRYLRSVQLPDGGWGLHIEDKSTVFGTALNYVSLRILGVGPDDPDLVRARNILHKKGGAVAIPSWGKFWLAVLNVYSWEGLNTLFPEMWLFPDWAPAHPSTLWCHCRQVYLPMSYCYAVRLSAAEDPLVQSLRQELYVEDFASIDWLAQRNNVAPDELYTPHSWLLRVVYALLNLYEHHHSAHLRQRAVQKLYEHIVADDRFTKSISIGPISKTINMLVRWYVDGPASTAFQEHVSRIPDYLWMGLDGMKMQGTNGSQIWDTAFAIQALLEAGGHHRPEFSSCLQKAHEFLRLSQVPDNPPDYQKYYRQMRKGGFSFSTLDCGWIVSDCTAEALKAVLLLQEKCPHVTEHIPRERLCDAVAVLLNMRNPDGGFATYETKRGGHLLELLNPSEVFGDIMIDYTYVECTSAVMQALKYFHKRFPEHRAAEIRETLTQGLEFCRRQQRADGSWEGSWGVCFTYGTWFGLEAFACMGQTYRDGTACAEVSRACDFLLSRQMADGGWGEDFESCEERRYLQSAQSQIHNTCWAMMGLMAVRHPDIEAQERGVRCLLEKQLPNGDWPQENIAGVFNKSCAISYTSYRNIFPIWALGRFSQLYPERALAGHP
Excerpt: I. Messung der Hemmung des ^14C-Acetat-Einbaus in die mit Digitonin fällbaren Steroide:
Die Untersuchung der Hemmwirkung wurde nach der in J. Lipid. Res. 37, 148-157 [1996] beschriebenen Methode bei Testkonzentrationen von 10^-8 und 10^-9 Mol/l durchgeführt.
Die Prozentwerte, um die obigen Verbindungen den ^14C-Acetat-Einbau hemmen, sind in Tabelle 1 angegeben.

[2] = system: 2,3-Epoxisqualen-Lanosterol-Cyclase; assay: In-vivo effect in the rat after oral administration: 2,3-epoxysqualene level in the liver; design: species or system Ratte
Procedure: II. Messung der in-vivo Wirkung an der Ratte nach oraler Gabe
Die Inhibierung des Enzyms 2,3-Epoxisqualen-Lanosterol-Cyclase bewirkt eine Erhöhung der 2,3-Epoxisqualenspiegel in Leber und Plasma. Die Menge an gebildetem 2,3-Epoxisqualen dient daher als direktes Maß für die Wirkstärke am Ganztier.Die Bestimmung wurde nach der in J. Lipid. Res. 38, 564-575, [1997] beschriebenen Methode nach t = 3 bzw. 8 Stunden nach Substanzgabe mit Konzentrationen von c = 0.01, 0.03, 0.1, 0.3 und 1.0 mg/kg durchgeführt. In der folgenden Tabelle 3 sind beispielhaft die Ergebnisse für die vorstehend erwähnten Substanzen A, B, C, D, E, G, H, I und K angegeben.

Asp. niger ATCC 16404 = assay: Fungistatic effect, serial dilution test (microtitre system); format: cell-based; conditions: Aspergillus niger
Procedure: (§1) IV. Bestimmung der fungistatischen Wirkung
(§2) Die fungistatische Wirkung wurde über den Reihenverdünnungstest (Mikrotitersystem) bestimmt. Als Nährmedium diente Sabouraud-Bouillon. Das Inoculum betrug ca. 10^4 bis 10^5 KBE/ml (KBE = koloniebildende Einheiten); die Bebrütungszeit betrug 2 bis 4 Tage bei 26°C.
(§3) Es wurde die niedrigste Konzentration, die sichtbares Wachstum nicht mehr zuließ (minimale Hemmkonzentration MHK), bestimmt.
(§4) Geprüft wurden die vorstehend erwähnten Verbindungen A, B, D, E, F, H, I, K, L und M. Die Ergebnisse sind in der folgenden Tabelle 5 zusammengefaßt. Die MHK ist in µg/ml angegeben.

[3] = system: Cand. albicans ATCC 10231; assay: as above; format: cell-based; conditions: Candida albicans
Procedure: as §1, §2, §3, §4

Pen.notatum CBS 19746 = assay: as above; format: cell-based; conditions: Penicillium chrysogenum
Procedure: as §1, §2, §3, §4

Rhod. rubra 49 = assay: as above; format: cell-based; conditions: read-out: MHK
Procedure: as §1, §2, §3, §4

[4] = system: Sacch. carlsbergensis ATCC 9080; assay: as above; format: cell-based; conditions: Saccharomyces pastorianus
Procedure: as §1, §2, §3, §4

[5] = system: Trich. mentagrophytes ATCC 9129; assay: as above; format: cell-based; conditions: Trichophyton mentagrophytes
Procedure: as §1, §2, §3, §4

[6] = Lipid lowering in the normolipaemic golden hamster; format: in vivo, Goldhamster; conditions: Dosis 57.5 mg/kg/Tag; compared with control group fed without test substance
Excerpt: III. Lipidsenkung am normolipämischen Goldhamster.
Diese Bestimmung wurde nach der in J. Lipid. Res. 38, 564-575, (1997) beschriebenen Methode durchgeführt. Am Ende des Versuchs wurde Gesamtcholesterol, β-Lipoprotein-Cholesterol sowie HDL-Cholesterol bestimmt und mit den Werten einer ohne Testsubstanz gefütterten Kontrollgruppe verglichen.

[7] = ATCC16404, Asp., Sabouraud-Bouillon, 2 bis 4 Tage bei 26°C, read-out: MHK
[8] = ATCC10231, Cand., Sabouraud-Bouillon, 2 bis 4 Tage bei 26°C, read-out: MHK
[9] = CBS19746, Pen., Sabouraud-Bouillon, 2 bis 4 Tage bei 26°C, read-out: MHK
[10] = Rhod., Sabouraud-Bouillon, 2 bis 4 Tage bei 26°C
[11] = ATCC9080, Sacc., Sabouraud-Bouillon, 2 bis 4 Tage bei 26°C, read-out: MHK
[12] = ATCC9129, Trich., Sabouraud-Bouillon, 2 bis 4 Tage bei 26°C, read-out: MHK

| inhibition at 0.01 µM ([1]; Testkonzentration 10^-8 Mol/l) [%] | inhibition at 0.001 µM ([1]; Testkonzentration 10^-9 Mol/l) [%] | MIC (Asp. niger ATCC 16404; [7]) [µg/mL] | MIC [3, 8] [µg/mL] | MIC (Pen.notatum CBS 19746; [9]) [µg/mL] | MIC (Rhod. rubra 49; [10]) [µg/mL] | MIC [4, 11] [µg/mL] | MIC [5, 12] [µg/mL] | SMILES | 2,3-Epoxysqualen-Konzentration in der Leber (Ratte) ([2]; c = 1.0 mg/kg, t = 3 h) [µg/g] | 2,3-Epoxysqualen-Konzentration in der Leber (Ratte) ([2]; c = 1.0 mg/kg, t = 8 h) [µg/g] | 2,3-Epoxysqualen-Konzentration in der Leber (Ratte) ([2]; c = 0.1 mg/kg, t = 3 h) [µg/g] | 2,3-Epoxysqualen-Konzentration in der Leber (Ratte) ([2]; c = 0.1 mg/kg, t = 8 h) [µg/g] | also measured |
| --- | --- | --- | --- | --- | --- | --- | --- | --- | --- | --- | --- | --- | --- |
| 78 | 57 |  |  |  |  |  |  | CN(C)Cc1ccc(SC2CCN(C(=O)OCc3ccccc3)CC2)cc1.Cl [C, N-Benzyloxycarbonyl-4-[4-(dimethylaminomethyl)phenylthio]-piperidin-hydrochlorid] | 3.8 | 2.0 | 0.5 | 1.3 | 2,3-Epoxysqualen-Konzentration in der Leber (Ratte) ([2]; c = 0.01 mg/kg, t = 3 h): 0.6 µg/g; 2,3-Epoxysqualen-Konzentration in der Leber (Ratte) ([2]; c = 0.01 mg/kg, t = 8 h): 3.0 µg/g; 2,3-Epoxysqualen-Konzentration in der Leber (Ratte) ([2]; c = 0.3 mg/kg, t = 3 h): 0.5 µg/g; 2,3-Epoxysqualen-Konzentration in der Leber (Ratte) ([2]; c = 0.3 mg/kg, t = 8 h): 1.8 µg/g |
| 87 | 47 | 8 | 16 | 1 | 4 | 16 | 1 | CN(C)Cc1ccc(CC2CCN(C(=S)SCc3ccccc3)CC2)cc1.Cl [E, N-(Benzylthio)thiocarbonyl-4-[4-(dimethylaminomethyl)-benzyl]piperidin-hydrochlorid] |  |  | 5.6 | 4.4 | 2,3-Epoxysqualen-Konzentration in der Leber (Ratte) ([2]; c = 0.01 mg/kg, t = 3 h): 0.9 µg/g; 2,3-Epoxysqualen-Konzentration in der Leber (Ratte) ([2]; c = 0.01 mg/kg, t = 8 h): 1.0 µg/g |
| 83 | 56 |  |  |  |  |  |  | CN(C)Cc1ccc(CC2CCN(C(=S)Oc3ccc(Cl)cc3)CC2)cc1 [G, N-(4-Chlorphenoxy)thiocarbonyl-4-[4-(dimethylaminomethyl)-benzyl]piperidin-hydrochlorid] | 87.4 | 134.2 | 10.3 | 11.5 |  |
| 88 | 64 | 64 | 32 | 32 | 8 | 64 | 1 | Cc1ccc(OC(=S)N2CCC(Cc3ccc(CN(C)C)cc3)CC2)cc1.Cl [L, 4-[4-(Dimethylaminomethyl)benzyl] -N-(4-methylphenoxy) - thiocarbonylpiperidin-hydrochlorid] |  |  |  |  |  |
| 59 | 23 |  |  |  |  |  |  | CN(C)Cc1ccc([C@H]2CC[C@H](N(C)C(=O)c3ccc(Cl)cc3)CC2)cc1 [V, reference compound] |  |  |  |  |  |
| 72 | 21 |  |  |  |  |  |  | Cc1ccc(CC(=O)O[C@H]2CC[C@H](c3ccc(CN(C)C)cc3)CC2)cc1 [W, trans-O-(p-Tolylacetyl)-4-(4-dimethylaminomethylphenyl)-cyclohexanol, reference compound] |  |  |  |  |  |

Further lines, the molecule ahead of its results:

| SMILES | inhibition at 0.01 µM ([1]; Testkonzentration 10^-8 Mol/l) [%] | inhibition at 0.001 µM ([1]; Testkonzentration 10^-9 Mol/l) [%] | MIC (Asp. niger ATCC 16404; [7]) [µg/mL] | MIC [3, 8] [µg/mL] | MIC (Pen.notatum CBS 19746; [9]) [µg/mL] | MIC (Rhod. rubra 49; [10]) [µg/mL] | MIC [4, 11] [µg/mL] | MIC [5, 12] [µg/mL] | 2,3-Epoxysqualen-Konzentration in der Leber (Ratte) ([2]; c = 1.0 mg/kg, t = 3 h) [µg/g] | 2,3-Epoxysqualen-Konzentration in der Leber (Ratte) ([2]; c = 1.0 mg/kg, t = 8 h) [µg/g] | 2,3-Epoxysqualen-Konzentration in der Leber (Ratte) ([2]; c = 0.1 mg/kg, t = 3 h) [µg/g] | 2,3-Epoxysqualen-Konzentration in der Leber (Ratte) ([2]; c = 0.1 mg/kg, t = 8 h) [µg/g] | also measured |
| --- | --- | --- | --- | --- | --- | --- | --- | --- | --- | --- | --- | --- | --- |
| CN(C)Cc1ccc(C(=O)C2CCN(C(=S)SCc3ccccc3)CC2)cc1.Cl [B, N-(Benzylthio) thiocarbonyl-4-[4-(dimethylaminomethyl)benzoyl]piperidin-hydrochlorid] | 85 | 47 | 32 | 64 | 8 | 16 | 32 | 2 | 39.2 | 42.0 |  |  | 2,3-Epoxysqualen-Konzentration in der Leber (Ratte) ([2]; c = 0.3 mg/kg, t = 3 h): 4.5 µg/g; 2,3-Epoxysqualen-Konzentration in der Leber (Ratte) ([2]; c = 0.3 mg/kg, t = 8 h): 5.8 µg/g |
| CN(C)Cc1ccc(SC2CCN(C(=O)Oc3ccc(Cl)cc3)CC2)cc1 [D, N-(4-Chlorphenoxy)carbonyl-4-[4-(dimethylaminomethyl)-phenylthio]piperidin-hydrochlorid] |  |  |  |  |  |  |  |  |  |  | 1.4 | 1.8 | inhibition at 0.001 µM [1]: 55%; inhibition at 0.01 µM [1]: 86%; 2,3-Epoxysqualen-Konzentration in der Leber (Ratte) ([2]; c = 0.01 mg/kg, t = 3 h): 1.3 µg/g; 2,3-Epoxysqualen-Konzentration in der Leber (Ratte) ([2]; c = 0.01 mg/kg, t = 8 h): 1.0 µg/g; MIC (Asp. niger ATCC 16404; ATCC16404, read-out: MHK): 256 µg/mL; MIC ([3]; ATCC10231, read-out: MHK): 64 µg/mL; MIC (Pen.notatum CBS 19746; CBS19746, read-out: MHK): 128 µg/mL; MIC (Rhod. rubra 49): 64 µg/mL; MIC ([4]; ATCC9080, read-out: MHK): 128 µg/mL; MIC ([5]; ATCC9129, read-out: MHK): 16 µg/mL |
| CN(C)Cc1ccc(C=C2CCN(C(=S)SCc3ccccc3)CC2)cc1.Cl [F, N-(Benzylthio)thiocarbonyl-4-[4-(dimethylaminomethyl)-benzyliden]piperidin-hydrochlorid] | 84 | 45 | 8 | 16 | 4 | 4 | 16 | 2 |  |  |  |  |  |
| CN(C)Cc1ccc(CC2CCN(C(=O)Oc3ccc(F)cc3)CC2)cc1 [M, 4-[4-(Dimethylaminomethyl)benzyl]-N-(4-fluorphenoxy)-carbonylpiperidin-hydrochlorid] |  |  |  |  |  |  |  |  |  |  |  |  | inhibition at 0.001 µM [1]: 59%; inhibition at 0.01 µM [1]: 84%; Gesamtcholesterol [6]: -26.8%; HDL-Cholesterol [6]: -20.4%; β-Lipoprotein-Cholesterol [6]: -31.6%; MIC (Asp. niger ATCC 16404; ATCC16404, read-out: MHK): 64 µg/mL; MIC ([3]; ATCC10231, read-out: MHK): 128 µg/mL; MIC (Pen.notatum CBS 19746; CBS19746, read-out: MHK): 512 µg/mL; MIC (Rhod. rubra 49): 32 µg/mL; MIC ([4]; ATCC9080, read-out: MHK): 512 µg/mL; MIC ([5]; ATCC9129, read-out: MHK): 2 µg/mL |
| CN(C)Cc1ccc(SC2CCN(C(=S)SCc3ccccc3)CC2)cc1.Cl [Verbindung A, N-(Benzylthio)thiocarbonyl-4-[4-(dimethylaminomethyl)-phenylthio]piperidin-hydrochlorid] | 85 | 53 | 8 | 16 | 4 | 16 | 8 | 1 | 9.3 | 9.8 |  |  | 2,3-Epoxysqualen-Konzentration in der Leber (Ratte) ([2]; c = 0.3 mg/kg, t = 3 h): 2.0 µg/g; 2,3-Epoxysqualen-Konzentration in der Leber (Ratte) ([2]; c = 0.3 mg/kg, t = 8 h): 1.2 µg/g |
